The results in this text go back to patent US20180353398A1, “HAIR CARE REGIMEN USING NA AEROSOL FOAM CONCENTRATED CONDITIONER” (The Procter & Gamble Company, priority 2015, published 2018).

SMILES strings stand for the structures. Counter-ions that a name gives are not always drawn.

The nature of the series: Kinematic viscosity of shampoo base formulation with viscosity reducing agent (calibrated viscometers). Type of series: physicochemical. The settings on record: lowest of 2-8% agent in base formulation, 40° C. An excerpt: Now referring to Tables 11 and 12, the base formulations were made by mixing 1.6% perfume, 24% linear sodium undecyl sulfate (CAS# 1072-24-8) active, 6% lauramidopropyl betaine (CAS# 4292-10-8) active and 60.4% deionized water which leaves 8% unfilled for the addition of a viscosity reducing agent (the balance being filled in by distilled water). For all compositions, the surfactant, water and additives including viscosity reducing agents were expected to be in a single phase.
The agents from Tables 11 and 12 were added to the base formulation at a percentage of 2%, 4%, 6%, and 8% into the above surfactant solution. The subsequent formulations were vortexed and put into oven at 60° C. overnight to form homogeneous solution. The viscosities of the formulations were measured with calibrated viscometers (Size 200/350/450) from Cannon Instrument Company (2139 High Tech Road, State College, Pa., USA, 16803).
After the equilibration, the formulations were drawn to reach the starting mark with a rubber suction bulb and the flow time between the starting mark and end mark was recorded for calculation. Each formulation was measured three times to calculate average and standard deviation. Between samples, viscometer was cleaned with water and acetone to rinse off residual.
Viscosity values in Table 11 and Table 12 were calculated based on the equation:
Viscosity (mm^2/s. (cSt))=Time (s)*Constant (mm^2/s^2. (cSt/s))
The time in the above equation is the flow time recorded in the experiment and the constant numbers for each calibrated viscometer were obtained from the manuals.

Regarding `C=CC(C)(CCC=C(C)C)OC(=O)C(C)C` (stereo not shown) [Linalyl Iso Butyrate], the “Lowest viscosity achieved (cSt)” value is reported as 38 cSt.

Take `CCC(=O)OC1CC2CC1C1CC=CC21` (stereo not shown) [Cyclaprop]: the “Lowest viscosity achieved (cSt)” value came to 404 cSt.

Turning to `CCCCCCCCCCCCCC(=O)OC(C)C` [Iso Propyl Myristate], the “Lowest viscosity achieved (cSt)” value was 30 cSt.

`CC(C)COC(=O)c1ccccc1O` [Iso Butyl Salicylate]: the “Lowest viscosity achieved (cSt)” value is on record as 409 cSt.

For the molecule `C=C(C)[C@H]1CC=C(C)CC1` [Limonene], the “Lowest viscosity achieved (cSt)” value worked out at 86 cSt.

`CCC(CC(C)CC)=NO` (stereo not shown) [5-Methyl-3-Heptanone Oxime]: the “Lowest viscosity achieved (cSt)” value worked out at 246 cSt.

For the molecule `CC(C)=CCC/C(C)=C/COC(=O)Cc1ccccc1` [Geranyl Phenyl Acetate], the “Lowest viscosity achieved (cSt)” value came to 34 cSt.

In the case of `CCC(=O)O[C@@H]1C[C@H]2CC[C@]1(C)C2(C)C` (racemic) [Iso Bornyl Propionate], the “Lowest viscosity achieved (cSt)” value worked out at 463 cSt.

As to `CCCCCCCC(OC)OC` [1,1-Dimethoxyoctane], the “Lowest viscosity achieved (cSt)” value stood at 308 cSt.

For the molecule `CC1=CC=C(C(C)C)CC1` [alpha-Terpinene], the “Lowest viscosity achieved (cSt)” value is on record as 42 cSt.

Take `CC(=O)OCCC(C)CCCC(C)C` (stereo not shown) [3,7-Dimethyloctyl Acetate]: the “Lowest viscosity achieved (cSt)” value was 446 cSt.

As to `CC(C)CC=C(C=O)C(C)C` [2-Isopropyl-5-methyl-2-hexenal], the “Lowest viscosity achieved (cSt)” value was determined as 332 cSt.

Consider `C=C(C)[C@H]1CC=C(C)CC1` [Dipentene], for which the “Lowest viscosity achieved (cSt)” value is listed as 35 cSt.

For the molecule `CC12CCC(CC1=O)C2(C)C` (stereo not shown) [Camphor Gum], the “Lowest viscosity achieved (cSt)” value is recorded as 127 cSt.

As for `CC(CC=O)CCCC(C)(C)O` (stereo not shown) [Hydroxycitronellal], the “Lowest viscosity achieved (cSt)” value stood at 34 cSt.

As to `CC12CCC(CC1)C(C)(C)O2` [Eucalyptol], the “Lowest viscosity achieved (cSt)” value is reported as 203 cSt.

For `CCO` [Ethanol], the “Lowest viscosity achieved (cSt)” value stood at 29 cSt.

As for `CC1=CCC(C(C)C)=CC1` [gamma-Terpinene], the “Lowest viscosity achieved (cSt)” value stood at 32 cSt.

Consider `CCCCCC1(C)CCC(C)(C)C1=O` (stereo not shown) [Veloutone], for which the “Lowest viscosity achieved (cSt)” value is 47 cSt.

With `CC(=O)CCc1ccc(O)cc1` [Raspberry Ketone], the “Lowest viscosity achieved (cSt)” value is 33 cSt.

Take `CCCCOC(=O)c1ccccc1O` [Butyl Salicylate]: the “Lowest viscosity achieved (cSt)” value is 368 cSt.

For the molecule `CC(C)CCOC(=O)c1ccccc1O` [Isoamyl Salicylate], the “Lowest viscosity achieved (cSt)” value is recorded as 193 cSt.

Take `CCOC(=O)CC(O)(CC(=O)OCC)C(=O)OCC` [Triethyl Citrate]: the “Lowest viscosity achieved (cSt)” value is given as 41 cSt.

Turning to `COC(C)(C)C1CC=C(C)CC1` (stereo not shown) [Orange Flower Ether], the “Lowest viscosity achieved (cSt)” value was found to be 419 cSt.

For `CCCCCCC1C(=O)CCC1C(=O)OC` (stereo not shown) [Dihyro Iso Jasmonate], the “Lowest viscosity achieved (cSt)” value is given as 119 cSt.

As to `CCCCCCCCCCCCCCCC` [Hexadecane], the “Lowest viscosity achieved (cSt)” value was determined as 18 cSt.

Take `CC(=O)OCCC(C)CCC=C(C)C` (stereo not shown) [Citronellyl Acetate]: the “Lowest viscosity achieved (cSt)” value turned out to be 363 cSt.

As for `CCCCCC(=O)OCC(C)C` [Isobutyl Hexanoate], the “Lowest viscosity achieved (cSt)” value is recorded as 109 cSt.
